Columns and labels:
MOLT-4 = assay: Compound was tested for its anticancer activity against human T-lymphocytic leukemia MOLT-4 cells.; format: functional, cell-based
HL-60 = assay: Compound was tested for its anticancer activity against HL-60 cells.; format: functional, cell-based; conditions: Homo sapiens

| Compound | IC50 (MOLT-4) [µM] | IC50 (HL-60) [µM] |
| --- | --- | --- |
| COc1ccc(C(=O)O[C@@H]2[C@H](O)[C@@H](O)[C@H](O[C@@H]3[C@H](O[C@H]4CC[C@@]5(C)C(=CC[C@H]6[C@@H]7C[C@@H]8O[C@@H](O)[C@H](C=C(C)C)[C@]9(C)O[C@@H](OC)C7(CC[C@@H]65)[C@H]89)C4)O[C@@H](CO)[C@@H](O)[C@@H]3O)O[C@H]2C)cc1 (stereo not given in full) | 0.0032 | 0.0092 |
| COc1cccc2c1C(=O)c1c(O)c3c(c(O)c1C2=O)C[C@@](O)(C(=O)CO)C[C@@H]3O[C@H]1C[C@H](N)[C@H](O)[C@H](C)O1 [DOXORUBICIN] | 0.035 |  |
| COc1cc([C@@H]2c3cc4c(cc3[C@@H](O[C@@H]3O[C@@H]5CO[C@@H](C)O[C@H]5[C@H](O)[C@H]3O)[C@H]3COC(=O)[C@H]23)OCO4)cc(OC)c1O [ETOPOSIDE] | 0.038 |  |
| CN(Cc1cnc2nc(N)nc(N)c2n1)c1ccc(C(=O)N[C@@H](CCC(=O)O)C(=O)O)cc1 [METHOTREXATE] | 0.048 |  |

Source: ChEMBL document CHEMBL1152098, “A new rearranged cholestane glycoside from ornithogalum saundersiae bulbs exhibiting potent cytostatic activities on leukemia HL-60 and molt-4 cells” (Bioorg Med Chem Lett, 1996)
